# According to US8696101B2, “Photopolymerizable inkjet black ink, and ink cartridge, inkjet printer and printed material using the ink, and method of preparing the ink” (Ricoh Company, Ltd., priority 2011, dated 2014):
# Columns and labels:
# [1] = skin sensitization test (LLNA method), OECD test guide line 429; assay type: in vivo; conditions: for Stimulation Index (SI value): photopolymerizable monomers used in clear inks B to K, SI less than 3 = no problem in skin sensitization
# Procedure: The LLNA method is a skin sensitization test specified as OECD test guide line 429, and as shown on page 55 in “Functional Materials” Vol. 25, No. 9 published in September, 2005, the skin sensitization is determined to have no problem when Stimulation Index (SI value) showing a degree of the skin sensitization is less than 3.
# [2] = evaluation taken from MSDS; cited from earlier work
Molecule,Stimulation Index (SI value) [1],other results
Polyethyleneglycol#600 dimethacrylate,1.6,–
Polyethyleneglycol#400 dimethacrylate,1.3,–
Caprolactone-modified neopentylglycolhydroxypivalate ester,0.9,–
Caprolactone-modified dipentaerythritolhexaacrylate,–,skin sensitization (from MSDS) [2]: Negative skin
Tricyclodecanedimethanoldimethacrylate,1.3,–
γ-butyrolactone methacrylate,2.1,–
"C=CC(=O)OCC(C)(C)COC(=O)C=C [Neopentylglycol diacrylate, reference compound]",–,skin sensitization of photopolymerizable monomer (positive / negative grouping) ([1]; grouping printed in Table 1): Positive
Polyethoxylated tetramethylolmethanetetraacrylate,1.7,–
